Measured values published in a melting point compilation (Tetko et al.; mined from patent text by program, amines drawn as free bases though some values may be those of a salt).

Compound `CC(C)c1ccc2nc3ccc(C(=O)OCCCCc4cccnc4)cn3c(=O)c2c1` has a melting point of 95 to 96 °C. For `CCCCCN(CCCCC)C(=O)N1CCN(C(=O)N(c2ccccc2)c2ccccc2)[C@H](CO)C1`, the melting point was 133 to 134 °C. For `COc1cc(N)c(Cl)cc1C(=O)NCC1CCN(CCCCCNC(=O)c2cccc(Cl)c2)CC1`, the melting point was 139 to 142 °C. With `CCCc1c(C(=O)C(C)C)c2ccc(C(N)=O)cc2n1Cc1ccccc1OC` the melting point was 174 to 175 °C. Work on `CCN(CC)C(=O)n1cnc(S(=O)(=O)C(F)(F)Br)n1` yielded a melting point of 74 to 75 °C. `O=c1c2cccnc2sc(=Nc2ccccc2)n1Cc1ccccc1` gave a melting point of 105 to 106 °C. Work on `Cc1nc(N)nc(N)c1N1CCN(Cc2ccccc2)CC1` yielded a melting point of 209 to 210 °C. In the case of `CCOC(=O)Cc1ccc2cc(Br)ccc2n1`, the melting point is reported as 100 to 101 °C. Work on `CCOC(=O)Cc1c(C(F)(F)F)c2ccc(O)cc2oc1=O` yielded a melting point of 112 to 114 °C. Work on `Cc1cc(OCCCCCl)cc(-c2ccc(F)cc2)n1` yielded a melting point of 59 to 61 °C. `CCOC(=O)c1ncn2c1CN=C(NCC(OC)OC)c1sccc1-2` gave a melting point of 134 °C. `CN1CCCN(Cc2nc3ccccc3[nH]2)CC1` showed a melting point of 152 to 155 °C. `CCCCCN1CCN(c2cccc3c2C[C@H](NC(C)=O)CC3)CC1` showed a melting point of 119 to 120 °C. `CN(C)C(=S)C1(c2ccccn2)CCCS1` (stereo not given) gave a melting point of 100 °C. With `O=C1NCCSc2sccc21` the melting point was 157 to 158 °C. With `CCOC(=O)C1=C(N)NC(N)=C(C(=O)OCC)C1c1ccccc1[N+](=O)[O-]` the melting point was 142 °C. Work on `COc1ccc(N2CCNC2=O)cc1OC` yielded a melting point of 168 °C. `Cc1cc(OCc2coc(C=Cc3ccc(OC(F)F)cc3)n2)ccc1COCCn1ccnn1` gave a melting point of 119 to 120 °C. With `COc1cc(Nc2nc3cccc(-c4cccc(Cl)c4)c3o2)cc(OC)c1OC` the melting point was 199 to 201 °C. With `CCCCCCCN(CC(c1ccccc1)c1ccccc1)C(=O)Nc1ccc(F)cc1F` the melting point was 76 to 78 °C. Compound `Clc1nc(Cl)nc(NC2CC2)n1` has a melting point of 99 to 101 °C. Compound `COc1cc(Cc2cnc(NCCSCc3csc(CN(C)C)n3)[nH]c2=O)ccn1` has a melting point of 79 to 80 °C. `N#Cc1cccc(CN2C(=O)c3ccccc3C2=O)n1` showed a melting point of 205 °C. For `COc1ccc2c(Cl)cc(-c3ccc(Cl)c(Cl)c3)nc2c1`, the melting point was 122 to 131 °C. Work on `O=[N+]([O-])c1ccc(CS(=O)(=O)CCO)c(CS(=O)(=O)CCO)c1` yielded a melting point of 126 to 128 °C. In the case of `COc1cc(Cl)c(-n2nnc3c(-c4ccccc4C)nc(C)nc32)c(OC)c1`, the melting point is reported as 173 to 174 °C. Compound `CC(=O)N1CCN(c2ccc(F)cc2O)CC1` has a melting point of 183 to 185 °C. For `COc1ccc(C=CC(=O)c2c(OC)cc(OC)cc2OC2OC(COC(C)=O)C(OC(C)=O)C(OC(C)=O)C2NC(C)=O)cc1` (stereo not given), the melting point was 108 to 110 °C. `CC(=O)On1cc(-c2ccccc2)c(=O)c(-c2ccccc2)c1` gave a melting point of 197 to 199 °C. For `Cc1n[nH]cc1-c1cccc2c1nnn2-c1ccnc(NC2CCN(S(C)(=O)=O)CC2)n1`, the melting point was 231 to 232 °C. In the case of `C#CCCCOc1c(C)cc(-c2noc(C)n2)cc1C`, the melting point is reported as 41.5 to 43 °C. `Oc1ccc2c(c1)C(n1cc[nH]c1=S)CCC2` (stereo not given) showed a melting point of 195 to 196 °C. For `CC(c1ccc(Oc2ccccc2)cc1)N(O)C(N)=O` (stereo not given), the melting point was 118 to 119 °C. `CCCc1c(OCc2ccc(OCC(=O)O)cc2)ccc(C(C)=O)c1O` showed a melting point of 140 to 142 °C. In the case of `O=C(NCCc1ccccc1F)c1c(Cl)ccc2nc(N3CCC(C(=O)O)CC3)ccc12`, the melting point is reported as 270 to 272 °C. `COC(=O)CCc1cc(NC(=O)c2ccc(C(=O)Nc3cc(CCC(=O)OC)cc(C(C)(C)C)c3O)s2)c(O)c(C(C)(C)C)c1` showed a melting point of 172 to 173 °C. Work on `O=C(O)CCCC(=O)N[C@@H](Cc1ccccc1)C(=O)NCCCCNc1ncccn1` yielded a melting point of 186 °C. `Nc1c(CC(=O)O)cccc1Oc1ccccc1F` showed a melting point of 122 to 123 °C. In the case of `Cc1cc(-c2ccccc2Cl)nn1C(C)(C)C(=O)N(C)C`, the melting point is reported as 104 to 106 °C. `Cc1nccc(NC(=O)C(CC2CCCC2)c2ccc(S(C)(=O)=O)c(C#N)c2)n1` (stereo not given) gave a melting point of 89 to 94 °C. Compound `CCC(=O)NCc1ccc(NC(=O)/C=C/c2cnn(C)c2-c2ccc(F)cc2)cc1` has a melting point of 271 to 272 °C. With `COc1ccc(C(NCc2cccc(F)c2)c2cccc(Nc3c(N)c(=O)c3=O)c2)cc1` (stereo not given) the melting point was 209 to 212 °C. Work on `Cc1ccc2c(c1)C(C(=O)O)c1cc(Br)ccc1CO2` (stereo not given) yielded a melting point of 168 to 170 °C. With `Cn1c(=O)n(Cc2ccc(C#N)cc2)c(=O)c2nc(-c3ccc(/C=C/C(=O)O)cc3)[nH]c21` the melting point was > 300 °C. Compound `Nc1nc2c(sc(=O)n2CC2CCCO2)c(=O)[nH]1` (stereo not given) has a melting point of 257 to 261 °C. With `CC(C)(C)c1nc(-c2nnc(NC(=N)N)s2)nc(C(C)(C)C)c1O` the melting point was 277 °C. `CS(=O)(=O)c1ncc2cc(Oc3ccccc3F)c(=O)n(-c3ccc(F)cc3)c2n1` gave a melting point of 82.3 to 91.5 °C. In the case of `N#CC1(c2ccc(OCc3ccc(F)cc3)c(OC3CCCC3)c2)CCC(=O)CC1`, the melting point is reported as 145 to 146 °C. For `Nc1ccc(S(=O)(=O)NCCCN2CCOCC2)cc1`, the melting point was 96 to 97 °C. `COC(=O)COc1c(CCC(C)C)c(OC)cc(OC)c1C(=O)CCc1ccc(O)c(OC)c1` showed a melting point of 89 to 90 °C.
